Assays:
[1] = system: serotonin 5-HT2A receptor; assay: Early gene expression in mouse somatosensory cortex after drug injection, real-time PCR; assay type: in vivo; settings: 1 h after i.p. exposure
[2] = system: PC12 cells; assay: IRC (c-fos, egr1) response to cytotoxin in PC12 cells by real-time PCR; assay type: cell-based, rat; settings: 200 μM H2O2, 1 hour exposure
Description: The values shown are mean±s.e.m.
The samples assayed were the same as those used to generate FIG. 7.
(§1) This level of oxidative stress induced by H2O2 leads to cell death via apoptosis, as determined by increased Caspase 3 activity by 8 hours and a reduced MTT assay response at 24 hours. […] This would allow the prediction of the toxicity of a candidate drug in this cellular target by comparison of the pattern obtained with this drug to those observed with known toxins. Thus the toxins would generate a library of reference landscapes that would serve as predictors of the effects of candidate drugs. The comparison between candidate compounds and reference landscapes could be achieved by representing each IRC at one concentration as a different axis in a conceptual multidimensional space (or matrix) and determining the Euclidean distance between the location of the candidate response profile and that of the reference landscape. Candidates that are closer to the position of known toxins would be predicted to have a higher likelihood of inducing similar toxicity at the corresponding concentrations.

[3] = system: PC12 cells; assay: Cell death of PC12 cells under oxidative stress (Caspase 3 activity, MTT assay); assay type: cell-based, rat
Description: as §1

[4] = system: PC12 cells that stably express the dopamine D2 receptor; settings: 200 μM H2O2, 1 h, PC12-D2R cells
Description: Early genes β-actin, PC3, c-fos, and egr1 were assayed by real-time PCR.

[5] = system: human serotonin 5-HT2A receptor; assay: Gene response landscape of IRCs in HEK293 cells expressing 5-HT2A receptor; assay type: cell-based; settings: 10 genes, 8 concentrations, 1 hour, HEK293 cells expressing 5-HT2A receptors
Description: FIG. 6 is the gene response landscape for 5-HT and DOI in HEK293 cells expressing 5-HT2A receptors. The levels of gene induction in response to 8 concentrations of each agonist for 10 genes were determined in quadruplicate samples. The height of each peak represents the level of gene induction, expressed as fold-change. […] For example, the rightmost peak is highest with DOI exposure, but is lower with 5-HT exposure.
HEK293 cells were genetically engineered to stably express the human serotonin 5-HT2A receptor. Replicate aliquots of cells were treated with varying concentrations of 5-HT and DOI and the levels of a panel of IRCS after 1 hour exposure were determined by SYBR® green real-time PCR.

SMILES	Induction of the 8 early genes in serotonin 5HT2A receptor gene-knockout mouse [1]	cfos mRNA level [2]	egr1 mRNA level [2]	MTT assay response ([3]; 200 μM H2O2, at 24 hours)	Caspase 3 activity ([3]; 200 μM H2O2, by 8 hours)	Early genes induced (β-actin, PC3, c-fos, egr1 assayed) [4]	Level of gene induction (fold-change) compared with 5-HT [5]
CCN(CC)C(=O)[C@@H]1C=C2c3cccc4[nH]cc(c34)C[C@H]2N(C)C1 [LSD]	no induction was observed						
OO [H2O2]		marked increase	marked increase	reduced	increased	Three genes were found to be induced at 1 h: PC3, c-fos, and egr1	
COc1cc(CC(C)N)c(OC)cc1I (centres unmarked) [DOI]	no induction was observed						generally lower responses
